Test results reported in ChEMBL document CHEMBL3991601, “The target landscape of clinical kinase drugs” (Science, 2017).
pKd: −log10 of the molar value. Active and inactive are the calls of the source. Cut-off read from the data, not from the text of the source, for most assays here: actives have a measured Kd and inactives only a lower limit.

Assays:
[1] = target: Cyclin-dependent kinase 4 (Homo sapiens, UniProt P11802)
[2] = target: T1, AarF domain-containing protein kinase 1 (Homo sapiens, UniProt Q86TW2)
T1 sequence (Q86TW2 whole entry): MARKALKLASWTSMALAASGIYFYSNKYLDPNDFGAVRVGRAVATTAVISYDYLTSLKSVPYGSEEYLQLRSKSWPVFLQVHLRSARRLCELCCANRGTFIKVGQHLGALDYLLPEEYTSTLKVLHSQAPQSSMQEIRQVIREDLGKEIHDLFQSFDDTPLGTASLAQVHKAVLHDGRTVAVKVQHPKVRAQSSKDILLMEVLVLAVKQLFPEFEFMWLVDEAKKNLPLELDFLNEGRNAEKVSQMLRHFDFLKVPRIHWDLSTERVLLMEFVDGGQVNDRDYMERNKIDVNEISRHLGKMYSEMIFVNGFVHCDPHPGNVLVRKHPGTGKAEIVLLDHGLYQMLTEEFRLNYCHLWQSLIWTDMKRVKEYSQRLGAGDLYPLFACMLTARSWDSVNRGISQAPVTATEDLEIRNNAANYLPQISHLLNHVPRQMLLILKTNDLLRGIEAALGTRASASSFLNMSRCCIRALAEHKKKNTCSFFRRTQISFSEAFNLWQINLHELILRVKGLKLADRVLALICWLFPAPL

[3] = target: T2, Mitogen-activated protein kinase kinase kinase 3 (Homo sapiens, UniProt Q99759)
T2 sequence (Q99759 whole entry): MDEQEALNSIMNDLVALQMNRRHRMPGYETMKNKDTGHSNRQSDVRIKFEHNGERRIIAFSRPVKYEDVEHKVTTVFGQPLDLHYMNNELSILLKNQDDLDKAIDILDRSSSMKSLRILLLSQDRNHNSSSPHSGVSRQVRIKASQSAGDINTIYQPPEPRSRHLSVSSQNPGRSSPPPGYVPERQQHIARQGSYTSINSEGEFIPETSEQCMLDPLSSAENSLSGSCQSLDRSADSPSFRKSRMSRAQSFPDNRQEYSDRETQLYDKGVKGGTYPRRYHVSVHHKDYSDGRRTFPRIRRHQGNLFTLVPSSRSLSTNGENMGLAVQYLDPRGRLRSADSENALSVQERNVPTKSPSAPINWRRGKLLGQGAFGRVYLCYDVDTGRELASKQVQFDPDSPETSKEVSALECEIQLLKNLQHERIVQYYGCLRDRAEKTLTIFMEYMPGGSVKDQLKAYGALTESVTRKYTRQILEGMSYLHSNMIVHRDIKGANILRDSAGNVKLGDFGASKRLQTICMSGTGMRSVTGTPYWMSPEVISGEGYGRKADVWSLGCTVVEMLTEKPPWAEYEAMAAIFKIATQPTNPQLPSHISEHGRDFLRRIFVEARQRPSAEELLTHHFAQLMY

[4] = target: DnaJ homolog subfamily A member 1 (Homo sapiens, UniProt P31689)
DnaJ homolog subfamily A member 1, sequence (P31689 whole entry): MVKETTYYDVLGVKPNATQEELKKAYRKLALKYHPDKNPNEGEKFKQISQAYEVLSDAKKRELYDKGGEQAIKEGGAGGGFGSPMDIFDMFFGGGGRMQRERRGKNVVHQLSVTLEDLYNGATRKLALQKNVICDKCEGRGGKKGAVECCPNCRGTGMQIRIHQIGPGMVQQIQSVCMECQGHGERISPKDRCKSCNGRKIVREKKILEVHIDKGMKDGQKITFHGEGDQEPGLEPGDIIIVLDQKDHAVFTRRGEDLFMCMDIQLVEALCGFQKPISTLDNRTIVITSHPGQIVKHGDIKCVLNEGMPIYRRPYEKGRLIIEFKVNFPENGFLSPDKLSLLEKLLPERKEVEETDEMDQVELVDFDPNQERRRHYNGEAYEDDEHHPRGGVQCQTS

[5] = target: T3, Phenylalanine--tRNA ligase beta subunit (Homo sapiens, UniProt Q9NSD9)
T3 sequence (Q9NSD9 whole entry): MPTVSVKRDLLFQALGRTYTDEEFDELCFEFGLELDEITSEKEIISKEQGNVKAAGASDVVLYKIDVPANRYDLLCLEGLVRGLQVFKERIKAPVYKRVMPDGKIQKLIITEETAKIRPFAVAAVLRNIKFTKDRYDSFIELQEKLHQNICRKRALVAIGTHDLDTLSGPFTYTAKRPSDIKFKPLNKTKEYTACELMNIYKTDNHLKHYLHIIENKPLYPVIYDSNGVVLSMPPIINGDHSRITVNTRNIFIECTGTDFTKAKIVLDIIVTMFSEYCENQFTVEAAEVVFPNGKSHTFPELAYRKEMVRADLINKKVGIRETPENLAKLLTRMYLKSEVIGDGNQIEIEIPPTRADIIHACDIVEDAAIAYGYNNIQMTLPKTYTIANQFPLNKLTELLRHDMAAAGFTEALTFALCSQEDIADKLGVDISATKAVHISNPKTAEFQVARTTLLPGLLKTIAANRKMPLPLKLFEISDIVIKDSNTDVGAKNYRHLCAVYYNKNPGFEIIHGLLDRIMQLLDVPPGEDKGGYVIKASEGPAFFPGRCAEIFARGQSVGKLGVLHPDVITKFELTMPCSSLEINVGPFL

[6] = target: Ribosomal protein S6 kinase alpha-1 (Homo sapiens, UniProt Q15418)
Ribosomal protein S6 kinase alpha-1, sequence (Q15418 whole entry): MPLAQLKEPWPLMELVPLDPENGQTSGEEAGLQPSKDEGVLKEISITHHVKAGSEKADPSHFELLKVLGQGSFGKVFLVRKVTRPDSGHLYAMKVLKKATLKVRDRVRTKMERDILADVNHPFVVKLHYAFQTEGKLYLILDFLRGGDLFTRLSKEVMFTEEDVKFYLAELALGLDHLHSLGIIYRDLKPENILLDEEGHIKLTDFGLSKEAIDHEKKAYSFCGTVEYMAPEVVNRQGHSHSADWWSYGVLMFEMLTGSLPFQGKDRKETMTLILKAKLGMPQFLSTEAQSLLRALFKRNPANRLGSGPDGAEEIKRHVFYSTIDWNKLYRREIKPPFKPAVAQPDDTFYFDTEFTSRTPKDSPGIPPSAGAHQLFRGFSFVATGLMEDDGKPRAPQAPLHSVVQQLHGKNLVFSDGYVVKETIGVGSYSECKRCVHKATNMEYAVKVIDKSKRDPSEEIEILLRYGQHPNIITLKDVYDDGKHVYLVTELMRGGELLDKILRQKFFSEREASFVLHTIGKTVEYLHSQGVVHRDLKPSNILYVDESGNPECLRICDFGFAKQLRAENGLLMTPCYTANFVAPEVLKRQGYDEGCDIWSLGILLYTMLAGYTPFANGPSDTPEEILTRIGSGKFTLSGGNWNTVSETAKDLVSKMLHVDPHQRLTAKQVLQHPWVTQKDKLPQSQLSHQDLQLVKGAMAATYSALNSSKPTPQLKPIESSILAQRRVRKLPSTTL

[7] = target: T4, Serine/threonine-protein kinase 4 (Homo sapiens, UniProt Q13043)
T4 sequence (Q13043 whole entry): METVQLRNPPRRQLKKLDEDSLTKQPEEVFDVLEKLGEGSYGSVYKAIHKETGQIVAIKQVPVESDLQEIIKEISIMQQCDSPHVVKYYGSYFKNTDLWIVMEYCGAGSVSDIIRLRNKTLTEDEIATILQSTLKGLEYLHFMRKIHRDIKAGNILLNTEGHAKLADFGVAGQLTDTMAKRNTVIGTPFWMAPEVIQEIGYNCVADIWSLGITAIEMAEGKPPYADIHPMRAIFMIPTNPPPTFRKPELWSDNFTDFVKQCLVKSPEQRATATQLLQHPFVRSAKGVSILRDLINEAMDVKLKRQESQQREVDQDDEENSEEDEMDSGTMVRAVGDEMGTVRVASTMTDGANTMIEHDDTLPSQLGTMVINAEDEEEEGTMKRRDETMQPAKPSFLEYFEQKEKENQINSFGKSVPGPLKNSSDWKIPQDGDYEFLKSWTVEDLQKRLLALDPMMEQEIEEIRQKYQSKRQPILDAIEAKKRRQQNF

[8] = target: Protein kinase C delta type (Homo sapiens, UniProt Q05655)
Protein kinase C delta type, sequence (Q05655 whole entry): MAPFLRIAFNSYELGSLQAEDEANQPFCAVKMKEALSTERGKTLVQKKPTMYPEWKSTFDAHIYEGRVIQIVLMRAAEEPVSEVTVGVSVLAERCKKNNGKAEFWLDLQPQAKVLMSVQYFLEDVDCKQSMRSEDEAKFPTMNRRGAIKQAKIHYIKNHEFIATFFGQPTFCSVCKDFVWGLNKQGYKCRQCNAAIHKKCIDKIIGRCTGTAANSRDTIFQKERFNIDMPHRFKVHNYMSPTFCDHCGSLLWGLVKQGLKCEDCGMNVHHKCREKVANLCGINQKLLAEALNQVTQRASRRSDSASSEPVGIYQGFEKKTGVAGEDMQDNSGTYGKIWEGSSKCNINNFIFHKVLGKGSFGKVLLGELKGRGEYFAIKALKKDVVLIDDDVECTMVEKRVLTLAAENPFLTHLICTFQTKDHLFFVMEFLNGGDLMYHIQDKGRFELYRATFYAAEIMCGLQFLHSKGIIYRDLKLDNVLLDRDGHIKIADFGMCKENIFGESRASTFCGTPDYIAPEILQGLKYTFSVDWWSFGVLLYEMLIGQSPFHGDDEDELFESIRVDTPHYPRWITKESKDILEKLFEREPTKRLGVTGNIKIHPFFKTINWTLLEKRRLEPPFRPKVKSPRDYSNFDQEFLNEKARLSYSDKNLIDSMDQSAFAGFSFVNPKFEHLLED

[9] = target: Serine/threonine-protein kinase pim-1 (Homo sapiens, UniProt P11309)
Serine/threonine-protein kinase pim-1, sequence (P11309 whole entry): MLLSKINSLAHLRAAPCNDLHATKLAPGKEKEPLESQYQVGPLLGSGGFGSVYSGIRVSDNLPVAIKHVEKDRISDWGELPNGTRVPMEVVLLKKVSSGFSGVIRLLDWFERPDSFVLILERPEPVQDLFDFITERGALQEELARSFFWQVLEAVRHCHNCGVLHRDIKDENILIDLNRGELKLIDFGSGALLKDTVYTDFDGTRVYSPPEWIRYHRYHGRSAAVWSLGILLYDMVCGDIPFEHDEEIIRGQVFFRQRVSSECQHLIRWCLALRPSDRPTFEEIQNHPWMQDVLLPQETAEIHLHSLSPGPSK

[10] = target: Cyclin-dependent kinase 6 (Homo sapiens, UniProt Q00534)
Cyclin-dependent kinase 6, sequence (Q00534 whole entry): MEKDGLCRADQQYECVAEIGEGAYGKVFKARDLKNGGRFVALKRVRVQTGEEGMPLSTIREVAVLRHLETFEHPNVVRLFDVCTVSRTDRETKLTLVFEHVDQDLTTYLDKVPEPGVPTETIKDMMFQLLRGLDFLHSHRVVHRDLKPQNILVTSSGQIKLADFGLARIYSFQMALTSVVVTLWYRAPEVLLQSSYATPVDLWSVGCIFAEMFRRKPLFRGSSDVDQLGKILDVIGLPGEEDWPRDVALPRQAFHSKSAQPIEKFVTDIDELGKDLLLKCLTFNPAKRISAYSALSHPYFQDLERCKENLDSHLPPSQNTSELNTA

[11] = target: Glycogen synthase kinase-3 beta (Homo sapiens, UniProt P49841)
Glycogen synthase kinase-3 beta, sequence (P49841 whole entry): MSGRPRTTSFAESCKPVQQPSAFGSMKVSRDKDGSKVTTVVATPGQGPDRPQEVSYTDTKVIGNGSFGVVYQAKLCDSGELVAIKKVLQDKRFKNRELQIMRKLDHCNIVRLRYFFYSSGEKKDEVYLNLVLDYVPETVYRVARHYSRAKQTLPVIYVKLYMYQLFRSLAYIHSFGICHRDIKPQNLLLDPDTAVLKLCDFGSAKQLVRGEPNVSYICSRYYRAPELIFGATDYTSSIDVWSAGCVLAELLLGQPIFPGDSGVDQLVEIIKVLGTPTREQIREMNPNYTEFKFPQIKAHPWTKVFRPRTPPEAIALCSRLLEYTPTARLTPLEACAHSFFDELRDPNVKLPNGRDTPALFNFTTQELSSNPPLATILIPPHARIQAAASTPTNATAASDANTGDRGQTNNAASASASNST

[12] = target: MAP kinase-activated protein kinase 2 (Homo sapiens, UniProt P49137)
MAP kinase-activated protein kinase 2, sequence (P49137 whole entry): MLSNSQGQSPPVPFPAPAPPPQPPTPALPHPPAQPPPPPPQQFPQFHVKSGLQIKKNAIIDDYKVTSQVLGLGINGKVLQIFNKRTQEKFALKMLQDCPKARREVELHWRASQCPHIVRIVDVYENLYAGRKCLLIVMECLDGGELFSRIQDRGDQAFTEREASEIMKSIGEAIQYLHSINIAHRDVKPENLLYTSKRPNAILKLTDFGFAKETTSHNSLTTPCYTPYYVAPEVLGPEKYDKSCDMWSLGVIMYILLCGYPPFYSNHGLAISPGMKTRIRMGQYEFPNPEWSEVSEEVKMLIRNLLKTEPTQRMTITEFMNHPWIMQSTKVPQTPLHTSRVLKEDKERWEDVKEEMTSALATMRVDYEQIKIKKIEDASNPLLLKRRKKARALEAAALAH

dCTP pyrophosphatase 1 = target: T5, dCTP pyrophosphatase 1 (Homo sapiens, UniProt Q9H773)
T5 sequence (Q9H773 whole entry): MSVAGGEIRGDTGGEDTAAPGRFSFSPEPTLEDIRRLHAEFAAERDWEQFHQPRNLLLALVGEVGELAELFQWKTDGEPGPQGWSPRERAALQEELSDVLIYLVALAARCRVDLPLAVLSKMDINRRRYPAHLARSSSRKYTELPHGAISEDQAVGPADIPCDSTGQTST
Note: in the data inactive means no Kd found up to 30 µM.

Cyclin-dependent kinase 4, sequence (P11802 whole entry, the tested form may be a part): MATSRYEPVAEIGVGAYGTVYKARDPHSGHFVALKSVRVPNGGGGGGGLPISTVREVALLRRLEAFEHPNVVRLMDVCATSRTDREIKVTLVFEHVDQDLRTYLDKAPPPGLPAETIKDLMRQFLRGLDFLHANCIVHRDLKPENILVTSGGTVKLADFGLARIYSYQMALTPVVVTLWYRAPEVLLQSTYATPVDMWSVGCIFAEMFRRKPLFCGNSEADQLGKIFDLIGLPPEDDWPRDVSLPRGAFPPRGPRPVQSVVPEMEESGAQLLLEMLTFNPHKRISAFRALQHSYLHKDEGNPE

Row | Compound | Kd [1] | Kd [2] | Kd [3] | Kd [4] | Kd [5] | Kd [6] | Kd [7] | Kd [8] | Kd [9] | Kd [10] | Kd [11] | Kd [12] | Kd (dCTP pyrophosphatase 1) | pKd [1]
1 | COC(=O)N[C@@H](C)CNc1nccc(-c2cn(C(C)C)nc2-c2cc(Cl)cc(NS(C)(=O)=O)c2F)n1 [ENCORAFENIB] | 0.112 µM (active) | > 30 µM (inactive) | > 30 µM (inactive) | > 30 µM (inactive) | > 30 µM (inactive) | > 30 µM (inactive) | > 30 µM (inactive) | > 30 µM (inactive) | > 30 µM (inactive) | > 30 µM (inactive) | 0.425 µM (active) | 14.7 µM (active) | > 30 µM (inactive) | 
2 | Cc1cc(-c2cc(O)ccc2Cl)cc2nnc(Nc3ccc(OCCN4CCCC4)cc3)nc12 | > 30 µM (inactive) | > 30 µM (inactive) | > 30 µM (inactive) | > 30 µM (inactive) | > 30 µM (inactive) | > 30 µM (inactive) | > 30 µM (inactive) | > 30 µM (inactive) | > 30 µM (inactive) | > 30 µM (inactive) | > 30 µM (inactive) | > 30 µM (inactive) | > 30 µM (inactive) | 
3 | CCCS(=O)(=O)Nc1ccc(F)c(C(=O)c2c[nH]c3ncc(-c4ccc(Cl)cc4)cc23)c1F [VEMURAFENIB] | > 30 µM (inactive) | > 30 µM (inactive) | > 30 µM (inactive) | > 30 µM (inactive) | > 30 µM (inactive) | > 30 µM (inactive) | > 30 µM (inactive) | > 30 µM (inactive) | > 30 µM (inactive) | > 30 µM (inactive) | > 30 µM (inactive) | > 30 µM (inactive) | > 30 µM (inactive) | 
4 | CCN1CCN(Cc2ccc(-c3cc4c(N[C@H](C)c5ccccc5)ncnc4[nH]3)cc2)CC1 [AEE-788] | > 30 µM (inactive) | > 30 µM (inactive) | > 30 µM (inactive) | > 30 µM (inactive) | > 30 µM (inactive) | > 30 µM (inactive) | > 30 µM (inactive) | > 30 µM (inactive) | > 30 µM (inactive) | > 30 µM (inactive) | > 30 µM (inactive) | > 30 µM (inactive) | > 30 µM (inactive) | 
5 | COc1cc2nccc(Oc3ccc(NC(=O)NC4CC4)c(Cl)c3)c2cc1C(N)=O [LENVATINIB] | > 30 µM (inactive) | > 30 µM (inactive) | > 30 µM (inactive) | > 30 µM (inactive) | > 30 µM (inactive) |  | > 30 µM (inactive) | > 30 µM (inactive) | > 30 µM (inactive) | > 30 µM (inactive) | > 30 µM (inactive) | 0.063 µM (active) | > 30 µM (inactive) | 
6 | CNC(=O)c1ccc(C)c(-n2c(C)cc(OCc3ccc(F)cc3F)c(Br)c2=O)c1 [PH-797804] | > 30 µM (inactive) | > 30 µM (inactive) | > 30 µM (inactive) | > 30 µM (inactive) | > 30 µM (inactive) | > 30 µM (inactive) | > 30 µM (inactive) | > 30 µM (inactive) | > 30 µM (inactive) | > 30 µM (inactive) | > 30 µM (inactive) |  | > 30 µM (inactive) | 
7 | COC(=O)[C@@]1(O)C[C@H]2O[C@]1(C)n1c3ccccc3c3c4c(c5c6ccccc6n2c5c31)C(=O)NC4 [K-252A] |  | 6.09 µM (active) | > 30 µM (inactive) | > 30 µM (inactive) | > 30 µM (inactive) | 2.99 µM (active) | 0.029 µM (active) |  | > 30 µM (inactive) | 0.399 µM (active) | > 30 µM (inactive) | > 30 µM (inactive) | > 30 µM (inactive) | 7.85
8 | CN(C)C(=O)c1cc2cnc(Nc3ccc(N4CCNCC4)cn3)nc2n1C1CCCC1 [RIBOCICLIB] |  | > 30 µM (inactive) | > 30 µM (inactive) | > 30 µM (inactive) | > 30 µM (inactive) | > 30 µM (inactive) | > 30 µM (inactive) | > 30 µM (inactive) | > 30 µM (inactive) |  | > 30 µM (inactive) | > 30 µM (inactive) | > 30 µM (inactive) | 

Further lines, with some results ahead:

Row | Kd [1] | Kd [2] | Kd [3] | Kd [4] | Kd [5] | Kd [6] | Kd [7] | Kd [8] | Kd [9] | Kd [10] | Kd [11] | Kd [12] | Kd (dCTP pyrophosphatase 1) | Compound | pKd [1]
9 | > 30 µM (inactive) | > 30 µM (inactive) | > 30 µM (inactive) | > 30 µM (inactive) | > 30 µM (inactive) | > 30 µM (inactive) | > 30 µM (inactive) | > 30 µM (inactive) | > 30 µM (inactive) | > 30 µM (inactive) | > 30 µM (inactive) | > 30 µM (inactive) | > 30 µM (inactive) | Cn1ncc(Cl)c1-c1cc(C(=O)N[C@H](CN)Cc2cccc(F)c2)sc1Cl [AFURESERTIB] | 
10 | > 30 µM (inactive) | > 30 µM (inactive) | > 30 µM (inactive) | > 30 µM (inactive) | > 30 µM (inactive) | > 30 µM (inactive) | > 30 µM (inactive) | > 30 µM (inactive) | > 30 µM (inactive) | > 30 µM (inactive) | > 30 µM (inactive) | > 30 µM (inactive) | > 30 µM (inactive) | CC[C@H](Nc1ncnc2[nH]cnc12)c1nc2cccc(F)c2c(=O)n1-c1ccccc1 [IDELALISIB] | 
11 | > 30 µM (inactive) | > 30 µM (inactive) | > 30 µM (inactive) | > 30 µM (inactive) | > 30 µM (inactive) | > 30 µM (inactive) | > 30 µM (inactive) | > 30 µM (inactive) | > 30 µM (inactive) | > 30 µM (inactive) | > 30 µM (inactive) |  | > 30 µM (inactive) | C[C@@H](c1ccc2nccn2c1)n1nnc2ncc(-c3cnn(C)c3)nc21 [SAVOLITINIB] | 
12 |  | > 30 µM (inactive) | > 30 µM (inactive) | > 30 µM (inactive) | > 30 µM (inactive) | > 30 µM (inactive) | > 30 µM (inactive) | > 30 µM (inactive) | > 30 µM (inactive) | > 30 µM (inactive) | > 30 µM (inactive) | > 30 µM (inactive) | > 30 µM (inactive) | Cc1cc([C@@H](C)Nc2ccccc2C(=O)O)c2nc(N3CCOCC3)cc(=O)n2c1 [AZD-6482] | 
